Results taken from patent US20110160262A1, “Method of treating retinal vein occlusion” (SANTEN PHARMACEUTICAL CO., LTD., priority 2005, published 2011).

Key:
[1] = system: laser-induced choroidal neovascularization; assay: laser-induced choroidal neovascularization in rats; format: in vivo; conditions: rat
Source text: In order to study the inhibitory effect of compound represented by the general formula [I] or a salt thereof on angiogenesis, the effects of nafamostat, FUT-187 and camostat, which are compounds represented by the general formula [I] or salts thereof, on laser-induced choroidal neovascularization in rats were studied. As a comparative compound, ethyl-4-(6-guanidinohexanoyloxy)benzoate methanesulfonate (hereinafter referred to as “gabexate”) represented by the following formula [III] was used.
A rat was given systemic anesthesia by intramuscular administration of 1 ml/kg of a mixed solution of a 5% (w/v) ketamine hydrochloride injectable solution and a 2% xylazine hydrochloride injectable solution (7:1), and a 0.5% (w/v) tropicamide-0.5% phenylephrine hydrochloride ophthalmic solution was instilled into the eyes to cause mydriasis, and then photocoagulation was carried out with a krypton laser photocoagulation apparatus. The photocoagulation was carried out in a posterior pole portion of ocular fundus at eight spots per eye sparsely by focusing on the retinal deep layer avoiding thick retinal vessels (coagulation conditions: spot size: 100 μm, output: 100 mW, coagulation time: 0.1 sec.). After the photocoagulation, the ocular fundus was photographed, and the site where the laser was irradiated was confirmed.
Nafamostat was dissolved in a 5% (w/v) glucose solution (prepared by dissolving D-glucose in physiological saline) to give a final concentration of 25 mg/ml, and the resulting nafamostat solution was intraperitoneally administered once a day at a dose of 1 ml/kg for 7 days including the day of surgery from the photocoagulation surgery. In the same manner, FUT-187 solutions at 25 mg/ml and 125 mg/ml and a camostat solution at 125 mg/ml were prepared, and each of the solutions was intraperitoneally administered once a day at a dose of 1 ml/kg for 7 days including the day of surgery from the photocoagulation surgery. In a comparative compound administration group, a solution obtained by dissolving gabexate in a glucose solution to give a final concentration of 50 mg/ml was administered in the same manner as above. In a vehicle administration group, a 5% (w/v) glucose solution was administered in the same manner.
On day 7 after photocoagulation, 0.1 ml of a 10% fluorescein solution was injected into the tail vein, and fluorescence fundus photography was carried out. In the fluorescence fundus photography, a spot where fluorescence leakage was not observed (absence of angiogenesis) was judged as negative, and a spot where fluorescence leakage was observed was judged as positive. When there are two photocoagulation sites where a little fluorescence leakage was observed, they were judged as positive (presence of angiogenesis). A neovascularization incidence rate was calculated in accordance with Equation 1. The neovascularization incidence rate was calculated based on the positive spot number relative to the 8 spots irradiated with a laser, and a choroidal neovascularization inhibition rate was calculated in accordance with Equation 2. The number of animals in each administration group is 4 to 7.
Each of nafamostat and FUT-187 was dissolved in a 1% (w/v) methyl cellulose solution to give a final concentration of 20 mg/ml, and the resulting solution was orally administered three times a day at a dose of 5 ml/kg for 7 days including the day of surgery from the photocoagulation surgery. In the same manner, camostat was suspended in a 1% (w/v) methyl cellulose solution to give a final concentration of 20 mg/ml, and the resulting suspension was orally administered three times a day at a dose of 5 ml/kg for 7 days including the day of surgery from the photocoagulation surgery. In a vehicle administration group, a 1% (w/v) methyl cellulose solution was administered in the same manner.
The evaluation was carried out with the same method as described above. The case number in each administration group is 6 to 7. […]

trypsin = trypsin (Homo sapiens, UniProt P07477); conditions: known activity; cited from earlier work
[2] = intraperitoneal administration (Table 1)
[3] = intraperitoneal, 25 mg/kg/day once a day for 7 days, evaluated day 7 after photocoagulation
[4] = oral, 300 mg/kg/day (three times a day) for 7 days, evaluated day 7
[5] = oral, intravitreal and subconjunctival administration (Tables 2 to 4)

CCOC(=O)c1ccc(OC(=O)CCCCCNC(=N)N)cc1 [Gabexate, ethyl-4-(6-guanidinohexanoyloxy)benzoate methanesulfonate]
choroidal neovascularization inhibitory effect (in words) [1, 2]: did not exhibit a choroidal neovascularization inhibitory effect
Choroidal neovascularization inhibition rate (%) ([1]; intraperitoneal, 50 mg/kg/day once a day for 7 days, evaluated day 7 after photocoagulation): −30.2%
trypsin inhibitory activity (in words) (trypsin): has a trypsin inhibitory activity

N=C(N)c1ccc2cc(OC(=O)c3ccc(NC4=NCCN4)cc3)ccc2c1 [FUT-187, 6′-amidino-2′-naphthyl-(4-(4,5-dihydro-1H-2-imidazolyl)amino) benzoate dimethanesulfonate]
choroidal neovascularization inhibitory effect (in words) [1, 2]: exhibited a high choroidal neovascularization inhibition rate
Choroidal neovascularization inhibition rate (%) [1, 3]: 40.1%
Choroidal neovascularization inhibition rate (%) ([1]; intraperitoneal, 125 mg/kg/day once a day for 7 days, evaluated day 7 after photocoagulation): 71.4%
Choroidal neovascularization inhibition rate (%) [1, 4]: 39.5%
choroidal neovascularization inhibitory effect (in words) [1, 5]: exhibits an excellent choroidal neovascularization inhibitory effect
trypsin inhibitory activity (in words) (trypsin): have the same activity

N=C(N)Nc1ccc(C(=O)Oc2ccc3cc(C(=N)N)ccc3c2)cc1 [Nafamostat, 6′-amidino-2′-naphthyl-4-guanidinobenzoate dimethanesulfonate]
choroidal neovascularization inhibitory effect (in words) [1, 2]: exhibited a high choroidal neovascularization inhibition rate
Choroidal neovascularization inhibition rate (%) [1, 3]: 50.5%
Choroidal neovascularization inhibition rate (%) ([1]; intravitreal, 10 nmol/eye, immediately after photocoagulation and on day 3, evaluated day 7): 26.5%
Choroidal neovascularization inhibition rate (%) [1, 4]: 32%
choroidal neovascularization inhibitory effect (in words) [1, 5]: exhibits an excellent choroidal neovascularization inhibitory effect
Choroidal neovascularization inhibition rate (%) ([1]; subconjunctival, 100 μg/eye/day once a day, evaluated day 7): 51.6%
trypsin inhibitory activity (in words) (trypsin): have the same activity
